# From PMC8032764 (Scientific Reports, 2021)
# Columns and labels:
# Serotonin transporter = system: T1, Serotonin transporter; assay: Cerep binding; set-up: species or system human; conditions: 10 μM; [3H]imipramine; hum. recomb. (CHO)
# T1 construct: host or cells: CHO
# healthy male subjects = assay: Study WP25366 multiple-ascending dose, safety EEG and plasma exposure; assay type: in vivo, human
# Procedure: 2) Study WP25366 Multiple-Ascending Dose (MAD) in Healthy Volunteers
# Of the 32 healthy male subjects who were randomized to treatment, 24 subjects were […]
# participants had several EEGs and several participants had sleep assessments with EEG that were also evaluated:
# • Cohort 1: 80 mg (n dosed: 6)
# • Cohort 2: 160 mg (n dosed: 6)
# • Cohort 3: 370 mg (n dosed: 6)
# • Cohort 4: 1000 mg (n dosed: 6)
# EEG monitoring was implemented in this study starting at about 1 hour prior to dosing and then up to approximately 7 hours after dosing, on selected days during the dosing period. All sleep recordings were performed for approximately 8 h from 23.00 to 07.00. The objective of such monitoring was detection if any, of specific EEG patterns such as spikes, sharp waves, and spike-and-wave discharges that would be indicative of epileptiform changes or non - […]
# The day and night EEG recordings were subject to expert safety review, with the objective of identifying any pro-convulsive signals. Following this safety review, EEG results were recorded either as normal, normal variant or abnormal variant. […]
# of epileptogenic effects (e.g., generalized spike-wave discharges) in any subject in any dose group at any time points during the study. The review of the day and night EEG recordings […]
# 160 mg BID, 370 mg BID and 1000 mg BID, was safe and ha d no impact on brain electrical activity. Maximum plasma concentrations at Day 13 were 2120, 4110, 6040, and […]
# 3) Study WP29402 Drug-Drug Interaction (DDI) Itraconazole in Healthy Volunteers This was an open-label, three treatment, fixed sequence crossover study to investigate the […]
# healthy male and female volunteers (age range 18-60 years; n: 12). As systemic basmisanil exposure was predicted to be higher than exposures achiev ed in previous clinical studies, regular EEG examinations were included and reviewed by a neurologist. Multiple oral doses […]
# with the CYP3A inhibitor, itraconazole (200 m g OD).
# Baseline EEG assessments were performed prior to the study (resting EEG eyes open/closed, intermittent photic stimulation, hyperventilation). On treatment days (1, 3, 5, 8) […]
# hours and resting EEG eyes open/closed w ere performed. […]
# administered with itraconazole.
# Neurokinin NK1 = system: T2, Neurokinin NK1; assay: Cerep binding; set-up: species or system human; conditions: 10 μM; [125I]BH-SP; hum., U-373MG cells
# T2 construct: purchased Eurofins Cerep
# Melatonin MT1 (ML1A) = system: T3, Melatonin MT1 (ML1A); assay: Cerep binding; set-up: species or system human; conditions: 10 μM; [125I]2-iodomelatonin; hum. recomb. (CHO)
# T3 construct: host or cells: CHO
# [1] = system: T4, Norepinephrine transporter; assay: Cerep binding; set-up: species or system human; conditions: 10 μM; [3H]nisoxetine; hum. recomb. (CHO)
# T4 construct: host or cells: CHO
# Adrenergic β1 = system: T5, Adrenergic β1; assay: Cerep binding; set-up: species or system human; conditions: 10 μM; [3H](-)CGP 12177; hum. recomb. (HEK-293)
# T5 construct: host or cells: HEK-293
# Opioid κ = system: T6, Opioid κ; assay: Cerep binding; set-up: species or system human; conditions: 10 μM; [3H]U 69593; hum. recomb. (CHO)
# T6 construct: host or cells: CHO
# [2] = system: Adrenergic α1 (non-selective); assay: Cerep binding; conditions: 10 μM; [3H]prazosin; rat cerebral cortex
# Adrenergic β2 = system: T7, Adrenergic β2; assay: Cerep binding; set-up: species or system human; conditions: 10 μM; [3H](-)CGP 12177; hum. recomb. (CHO)
# T7 construct: host or cells: CHO
# [3] = Plasma levels, parallel dose groups of water maze; assay type: in vivo, rat; conditions: 10 mg/kg p.o., 30 min
# Procedure: Plasma samples were collected and frozen at − 80 °C for later analysis.
# The calibration range was from 1.0 to 5000 ng/mL. After protein precipitation with ethanol, the sample solution was injected onto a Gemini C18 trapping column (2 × 10 mm; Phenomenex, Torrance, CA, USA) and polar endogenous compounds and salts were rinsed off. Analytical separation was performed on an Atlantis T3 column (2.1 × 50 mm) (Waters, Milford, MA, USA), using methanol/water containing 0.1% formic acid as mobile phase. A drug analogue was used as an internal standard.
# Muscarinic M5 = system: T8, Muscarinic M5; assay: Cerep binding; set-up: species or system human; conditions: 10 μM; [3H]4-DAMP; hum. recomb. (CHO)
# T8 construct: host or cells: CHO
# [4] = system: T9, Benzodiazepine (peripheral); assay: Cerep binding; conditions: 10 μM; [3H]PK 11195; rat heart
# T9 construct: tissue Eurofins Cerep SA; host or cells: rat heart
# [5] = system: Ca2+ channel, L-type (phenylalkylamine site); assay: Cerep binding; conditions: 10 μM; [3H](-)D 888; rat cerebral cortex
# Serotonin 5-HT7 = system: T10, Serotonin 5-HT7; assay: Cerep binding; set-up: species or system human; conditions: 10 μM; [3H]LSD; hum. recomb. (CHO)
# T10 construct: purchased Eurofins Cerep
# Dopamine D3 = system: T11, Dopamine D3; assay: Cerep binding; set-up: species or system human; conditions: 10 μM; [3H]spiperone; hum. recomb. (CHO)
# T11 construct: host or cells: CHO
# Serotonin 5-HT2A = system: T12, Serotonin 5-HT2A; assay: Cerep binding; set-up: species or system human; conditions: 10 μM; [3H]ketanserin; hum. recomb. (HEK-293)
# T12 construct: purchased Eurofins Cerep
# GABAA-α5 receptors = assay: Receptor occupancy estimated from free plasma concentrations, object retrieval; assay type: in vivo, Macaca fascicularis
# Source text: Free plasma concentrations were used to estimate receptor occupancy.
# Kv channel = assay: Cerep binding; conditions: 10 μM; [125I]α−dendrotoxin; rat cerebral cortex
# Angiotensin AT1 = system: T13, Angiotensin AT1; assay: Cerep binding; set-up: species or system human; conditions: 10 μM; [125I][Sar1,Ile8]-AT-II; hum. recomb. (HEK-293)
# T13 construct: purchased Eurofins Cerep
# Neurotensin NTS1 (NT1) = system: T14, Neurotensin NTS1 (NT1); assay: Cerep binding; set-up: species or system human; conditions: 10 μM; [125I]Tyr3-neurotensin; hum. recomb. (CHO)
# T14 construct: host or cells: CHO
# human GABAA α5β3γ2 = human GABAA α5β3γ2 (Homo sapiens, UniProt P18507+P31644); assay: [3H]-Ro-15 4513 displacement assay; assay type: binding; set-up: expressed in transfected cells; host or cells: HEK293-EBNA, transient
# Procedure: IC50 values were derived from the inhibition curve and Ki values were calculated as described below.
# Sequence of human GABAA α5β3γ2 (P31644 32-462): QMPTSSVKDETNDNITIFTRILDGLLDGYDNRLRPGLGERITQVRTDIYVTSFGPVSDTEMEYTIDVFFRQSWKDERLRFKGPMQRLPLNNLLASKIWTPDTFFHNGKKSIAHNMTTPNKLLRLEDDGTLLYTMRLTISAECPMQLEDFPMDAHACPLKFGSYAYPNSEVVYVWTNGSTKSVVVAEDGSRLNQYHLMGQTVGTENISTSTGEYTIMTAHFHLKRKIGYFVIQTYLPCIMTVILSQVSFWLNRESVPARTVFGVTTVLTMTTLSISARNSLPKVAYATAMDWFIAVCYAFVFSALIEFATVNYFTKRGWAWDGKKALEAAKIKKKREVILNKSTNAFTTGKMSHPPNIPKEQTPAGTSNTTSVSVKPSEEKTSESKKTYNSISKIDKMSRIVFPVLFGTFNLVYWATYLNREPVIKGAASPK
# Sequence of human GABAA α5β3γ2 (P28472 26-473 partner): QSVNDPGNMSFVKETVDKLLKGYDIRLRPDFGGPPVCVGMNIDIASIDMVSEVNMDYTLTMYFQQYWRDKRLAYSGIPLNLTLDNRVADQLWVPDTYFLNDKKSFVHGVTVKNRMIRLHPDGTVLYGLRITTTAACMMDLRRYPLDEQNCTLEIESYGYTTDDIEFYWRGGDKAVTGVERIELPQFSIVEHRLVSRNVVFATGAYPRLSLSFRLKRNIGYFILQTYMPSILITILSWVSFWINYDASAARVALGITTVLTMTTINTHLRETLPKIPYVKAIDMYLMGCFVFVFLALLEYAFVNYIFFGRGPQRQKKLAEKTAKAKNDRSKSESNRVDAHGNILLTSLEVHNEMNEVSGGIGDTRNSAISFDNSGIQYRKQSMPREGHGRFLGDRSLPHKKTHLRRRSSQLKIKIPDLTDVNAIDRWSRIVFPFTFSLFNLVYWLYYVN
# Sequence of human GABAA α5β3γ2 (P18507 40-475): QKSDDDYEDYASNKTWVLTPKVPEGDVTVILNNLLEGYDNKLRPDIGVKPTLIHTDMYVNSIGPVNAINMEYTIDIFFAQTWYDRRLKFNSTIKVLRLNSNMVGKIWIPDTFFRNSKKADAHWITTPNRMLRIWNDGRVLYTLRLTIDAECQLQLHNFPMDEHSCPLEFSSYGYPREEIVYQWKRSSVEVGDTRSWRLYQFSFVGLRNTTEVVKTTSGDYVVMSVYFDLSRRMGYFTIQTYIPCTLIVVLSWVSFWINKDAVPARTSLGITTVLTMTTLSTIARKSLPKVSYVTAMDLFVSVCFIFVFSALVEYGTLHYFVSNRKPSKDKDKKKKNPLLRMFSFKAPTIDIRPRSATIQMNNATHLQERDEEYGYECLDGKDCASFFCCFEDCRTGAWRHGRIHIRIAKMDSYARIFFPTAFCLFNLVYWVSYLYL
compound,measurement,setting,value
Cc1onc(-c2ccc(F)cc2)c1COc1ccc(C(=O)N2CCS(=O)(=O)CC2)cn1 [basmisanil],% Inhibition,Serotonin transporter,5%
same,Maximum plasma concentration at Day 13,healthy male subjects; 80 mg BID,2120 ng/mL
same,Maximum plasma concentration at Day 13,healthy male subjects; 160 mg BID,4110 ng/mL
same,Maximum plasma concentration at Day 13,healthy male subjects; 370 mg BID,6040 ng/mL
same,Maximum plasma concentration at Day 13,healthy male subjects; 1000 mg BID,8520 ng/mL
same,EEG assessments,"healthy male subjects; 80, 160, 370 and 1000 mg BID",revealed no findings of clinical concern
same,% Inhibition,Neurokinin NK1,37%
same,% Inhibition,Melatonin MT1 (ML1A),14%
same,% Inhibition,[1],11%
same,% Inhibition,Adrenergic β1,6%
same,% Inhibition,Opioid κ,13%
same,% Inhibition,[2],-1%
same,% Inhibition,Adrenergic β2,10%
same,maximal plasma level,[3],903 ± 13 ng/mL
same,% Inhibition,Muscarinic M5,-7%
same,% Inhibition,[4],-10%
same,% Inhibition,[5],-3%
same,% Inhibition,Serotonin 5-HT7,13%
same,% Inhibition,Dopamine D3,3%
same,% Inhibition,Serotonin 5-HT2A,-9%
same,estimated receptor occupancy,GABAA-α5 receptors; 3 mg/kg p.o.,about 30%
same,estimated receptor occupancy,GABAA-α5 receptors; 10 mg/kg p.o.,around 50%
same,% Inhibition,Kv channel,-1%
same,% Inhibition,Angiotensin AT1,2%
same,% Inhibition,Neurotensin NTS1 (NT1),-6%
same,Ki,human GABAA α5β3γ2,7.6 ± 0.3 nM
